Measurements from US20120121591A1 (priority 2009, published 2012).

Key:
Format in all cases: cell-based
[1] = test system: IFN-g secretion from T cells in human whole blood; settings: read-out: WB (IFNg) IC50 (nM, Avg)
[2] = test system: IL-2 secretion from T cells in human whole blood; settings: read-out: WB (IL-2) IC50 (nM, Avg)
hKv1.3 = hKv1.3 (Homo sapiens, UniProt P22001); assay: cell-based; settings: Kv1.3 (IWQ) IC50 (nM, Avg)
Sequence of hKv1.3 (P22001 whole entry): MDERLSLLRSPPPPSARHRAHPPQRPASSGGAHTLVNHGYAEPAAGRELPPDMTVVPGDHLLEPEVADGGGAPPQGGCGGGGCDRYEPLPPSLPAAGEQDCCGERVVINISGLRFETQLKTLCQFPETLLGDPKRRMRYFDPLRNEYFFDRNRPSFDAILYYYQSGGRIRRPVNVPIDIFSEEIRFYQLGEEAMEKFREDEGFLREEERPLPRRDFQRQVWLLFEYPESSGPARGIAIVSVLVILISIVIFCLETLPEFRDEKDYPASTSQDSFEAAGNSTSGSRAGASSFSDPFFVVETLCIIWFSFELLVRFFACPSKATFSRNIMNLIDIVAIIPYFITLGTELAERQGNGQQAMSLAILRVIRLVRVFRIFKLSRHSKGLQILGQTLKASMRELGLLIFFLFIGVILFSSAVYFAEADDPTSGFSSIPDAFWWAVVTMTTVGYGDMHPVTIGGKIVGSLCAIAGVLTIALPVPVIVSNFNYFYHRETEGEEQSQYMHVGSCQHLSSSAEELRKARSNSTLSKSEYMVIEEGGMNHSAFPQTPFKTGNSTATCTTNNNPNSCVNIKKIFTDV

Row | SMILES | IC50 [1] [nM] | IC50 [2] [nM] | IC50 (hKv1.3) [nM]
1 | CC[C@H](C)[C@@H]1NC(=O)[C@@H](NC(=O)[C@H](CO)NC(=O)[C@@H](N)CCCNC(=N)N)CSSC[C@@H](C(=O)O)NC(=O)[C@H]([C@@H](C)O)NC(=O)CNC(=O)[C@@H]2CSSC[C@@H]3NC(=O)[C@H](CCC(N)=O)NC(=O)[C@H](Cc4ccccc4)NC(=O)[C@H](C)NC(=O)[C@H](CCCCN)NC(=O)[C@H](CSSC[C@H](NC(=O)[C@H](Cc4ccccc4)NC(=O)[C@H](CO)NC(=O)[C@H](CC(C)C)NC(=O)[C@H](CCCNC(=N)N)NC(=O)[C@H](Cc4ccc(O)cc4)NC(=O)[C@H](CCCCN)NC(=O)[C@H](CCSC)NC(=O)[C@H](CO)NC(=O)[C@H](Cc4c[nH]cn4)NC(=O)[C@H](CCCCN)NC3=O)C(=O)N[C@@H](CCCNC(=N)N)C(=O)N[C@@H](CCCCN)C(=O)N[C@@H]([C@@H](C)O)C(=O)N2)NC(=O)[C@H](CCCNC(=N)N)NC(=O)[C@H](CO)NC(=O)[C@H](CCCCN)NC(=O)[C@@H]2CCCN2C(=O)[C@H]([C@@H](C)CC)NC(=O)[C@H]([C@@H](C)O)NC(=O)[C@H](CC(=O)O)NC1=O [[Lys13]ShK] | 0.363 | 0.257 | 0.157
2 | CC[C@H](C)[C@@H]1NC(=O)[C@@H](NC(=O)[C@H](CO)NC(=O)[C@@H](N)CCCNC(=N)N)CSSC[C@@H](C(=O)O)NC(=O)[C@H]([C@@H](C)O)NC(=O)CNC(=O)[C@@H]2CSSC[C@@H]3NC(=O)[C@H](CCC(N)=O)NC(=O)[C@H](Cc4ccccc4)NC(=O)[C@H](CCCCN)NC(=O)[C@H]([C@@H](C)O)NC(=O)[C@H](CSSC[C@H](NC(=O)[C@H](Cc4ccccc4)NC(=O)[C@H](CO)NC(=O)[C@H](CC(C)C)NC(=O)[C@H](CCCNC(=N)N)NC(=O)[C@H](Cc4ccc(O)cc4)NC(=O)[C@H](CCCCN)NC(=O)[C@H](CCSC)NC(=O)[C@H](CO)NC(=O)[C@H](Cc4c[nH]cn4)NC(=O)[C@H](CCCCN)NC3=O)C(=O)N[C@@H](CCCNC(=N)N)C(=O)N[C@@H](CCCCN)C(=O)N[C@@H]([C@@H](C)O)C(=O)N2)NC(=O)[C@H](CCCNC(=N)N)NC(=O)[C@H](CO)NC(=O)[C@H](CCCCN)NC(=O)[C@@H]2CCCN2C(=O)[C@H]([C@@H](C)CC)NC(=O)[C@H]([C@@H](C)O)NC(=O)[C@H](CC(=O)O)NC1=O [[Lys14]ShK] | 0.202 | 0.075 | 0.073
3 | CC[C@H](C)[C@@H]1NC(=O)[C@@H](NC(=O)[C@H](CO)NC(=O)[C@@H](N)CCCNC(=N)N)CSSC[C@@H](C(=O)O)NC(=O)[C@H]([C@@H](C)O)NC(=O)CNC(=O)[C@@H]2CSSC[C@@H]3NC(=O)[C@H](CCC(N)=O)NC(=O)[C@H](CCCCN)NC(=O)[C@H](C)NC(=O)[C@H]([C@@H](C)O)NC(=O)[C@H](CSSC[C@H](NC(=O)[C@H](Cc4ccccc4)NC(=O)[C@H](CO)NC(=O)[C@H](CC(C)C)NC(=O)[C@H](CCCNC(=N)N)NC(=O)[C@H](Cc4ccc(O)cc4)NC(=O)[C@H](CCCCN)NC(=O)[C@H](CCSC)NC(=O)[C@H](CO)NC(=O)[C@H](Cc4c[nH]cn4)NC(=O)[C@H](CCCCN)NC3=O)C(=O)N[C@@H](CCCNC(=N)N)C(=O)N[C@@H](CCCCN)C(=O)N[C@@H]([C@@H](C)O)C(=O)N2)NC(=O)[C@H](CCCNC(=N)N)NC(=O)[C@H](CO)NC(=O)[C@H](CCCCN)NC(=O)[C@@H]2CCCN2C(=O)[C@H]([C@@H](C)CC)NC(=O)[C@H]([C@@H](C)O)NC(=O)[C@H](CC(=O)O)NC1=O [[Lys15]ShK] | 0.991 | 0.465 | 0.295
